Key:
arterial smooth muscles = test: in vitro contraction of rabbit mesenteric artery rings; format: cell-based; details: Oryctolagus cuniculus, read-out: arterial pD2 (converted)
Method: (§1) The in vitro activity of the compounds of the invention was studied on urethral and arterial smooth muscles.
(§2) These experiments were carried out on female New Zealand rabbits weighing from 3 to 3.5 kg. The animals were killed by vertebral dislocation, and rings of tissue were then removed from mesenteric arteries and from the urethra. These rings of tissue were immersed in a modified Krebs solution and oxygenated with a mixture of 95% O2 and 5% CO2. Each sample of tissue was subjected to a tension of 1 g, phenylephrine was then introduced at cumulative doses and the dose/response curve was established. After rinsing of the samples, the test compound was introduced at cumulative doses and the dose/response curve was established. The α1 -adrenergic effect of each compound is evaluated by calculating the pD2 (negative logarithm of the concentration of antagonist in the presence of which the effect of a dose of the agonist is divided by 2), as well as by the maximum effect representing the percentage of the maximum contraction obtained with phenylephrine (% Emax)

urethral smooth muscles = test: in vitro contraction of rabbit urethra rings; format: cell-based; details: Oryctolagus cuniculus, read-out: urethral pD2 (converted)
Method: as §1, §2

**Q.** Which EC50 (arterial smooth muscles) does the source give for `CNC[C@H](O)c1cccc(O)c1` [phenylephrine] here?
**A.** Its EC50 is 3.16 to 6.31 µM.

**Q.** What about the EC50 (urethral smooth muscles) of the same compound?
**A.** The EC50 was 3.16 to 6.31 µM.
